In series [1] the test system is Hepatotoxicity. The experiment in a line: Literature-mined compound from Fourches et al multi-species drug-induced liver injury (DILI) dataset, effect in non-rodents.
The subject of series [2] is Hepatotoxicity. The experiment in a line: Literature-mined compound from Fourches et al multi-species drug-induced liver injury (DILI) dataset, effect in humans. Particulars: human.
For series [3], the system named is Hepatotoxicity. In words: Literature-mined compound from Fourches et al multi-species drug-induced liver injury (DILI) dataset, effect in rodents. Conditions: rodentia.

In the case of `C/C=C/C[C@@H](C)C(=O)[C@H]1C(=O)N[C@@H](C(C)C)C(=O)N(C)CC(=O)N(C)[C@@H](CC(C)C)C(=O)N[C@@H](C(C)C)C(=O)N(C)[C@@H](CC(C)C)C(=O)N[C@@H](C)C(=O)N[C@H](C)C(=O)N(C)[C@@H](CC(C)C)C(=O)N(C)[C@@H](CC(C)C)C(=O)N(C)[C@@H](C(C)C)C(=O)N1C` [VALSPODAR], the Hepatotoxicity result in series [1] is “no drug-induced liver injury reported”; in series [2], “drug-induced liver injury reported”; in series [3], “drug-induced liver injury reported”.

Take `CN[C@H](CC(C)C)C(=O)N[C@H]1C(=O)N[C@@H](CC(N)=O)C(=O)N[C@H]2C(=O)N[C@H]3C(=O)N[C@H](C(=O)N[C@H](C(=O)O)c4cc(O)cc(O)c4-c4cc3ccc4O)[C@H](O)c3ccc(c(Cl)c3)Oc3cc2cc(c3O[C@@H]2O[C@H](CO)[C@@H](O)[C@H](O)[C@H]2O[C@H]2C[C@](C)(N)[C@H](O)[C@H](C)O2)Oc2ccc(cc2Cl)[C@H]1O` [VANCOMYCIN]: the Hepatotoxicity result in series [1] was “no drug-induced liver injury reported”; in series [2], “drug-induced liver injury reported”; in series [3], “drug-induced liver injury reported”.

As for `COc1cc2c(Nc3ccc(Br)cc3F)ncnc2cc1OCC1CCN(C)CC1` [VANDETANIB], the Hepatotoxicity entry in series [1] is reported as “no drug-induced liver injury reported”; in series [2], “drug-induced liver injury reported”; in series [3], “no drug-induced liver injury reported”.

With `COc1ccc(C(CN(C)C)C2(O)CCCCC2)cc1` (stereo not drawn) [VENLAFAXINE], the Hepatotoxicity entry in series [1] is reported as “no drug-induced liver injury reported”; in series [2], “drug-induced liver injury reported”; in series [3] it was “no drug-induced liver injury reported”.

`COc1ccc(C(=O)N2CCN(c3ccc4c(c3)CCC(=O)N4)CC2)cc1OC` [VESNARINONE]: the Hepatotoxicity result is reported as “no drug-induced liver injury reported” in series [1], “drug-induced liver injury reported” in series [2] and “drug-induced liver injury reported” in series [3].

Consider `Nc1ncnc2c1ncn2[C@@H]1O[C@H](CO)[C@@H](O)[C@@H]1O` [VIDARABINE], for which the results for the Hepatotoxicity entry in series [1], in series [2] and in series [3] were “no drug-induced liver injury reported”, “drug-induced liver injury reported” and “drug-induced liver injury reported”, respectively.

In the case of `C=CC(N)CCC(=O)O` (stereo not drawn) [VIGABATRIN], the Hepatotoxicity entry was “no drug-induced liver injury reported” in series [1], “no drug-induced liver injury reported” in series [2] and “drug-induced liver injury reported” in series [3].

For `CC[C@]1(O)C[C@@H]2CN(CCc3c([nH]c4ccccc34)[C@@](C(=O)OC)(c3cc4c(cc3OC)N(C)[C@H]3[C@@](O)(C(=O)OC)[C@H](OC(C)=O)[C@]5(CC)C=CCN6CC[C@]43[C@@H]65)C2)C1` [VINBLASTINE], the Hepatotoxicity result is recorded as “no drug-induced liver injury reported” in series [1], “drug-induced liver injury reported” in series [2] and “drug-induced liver injury reported” in series [3].

In the case of `CC[C@]1(O)C[C@H]2CN(CCc3c([nH]c4ccccc34)[C@@](C(=O)OC)(c3cc4c(cc3OC)N(C=O)[C@H]3[C@@](O)(C(=O)OC)[C@H](OC(C)=O)[C@]5(CC)C=CCN6CC[C@]43[C@@H]65)C2)C1` [VINCRISTINE], the Hepatotoxicity result in series [1], in series [2] and in series [3] was “drug-induced liver injury reported” each time.

In the case of `CC[C@]12C=CCN3CC[C@@]4(c5cc([C@@]6(C(=O)OC)C[C@@H]7C[C@@H](C(C)(F)F)CN(Cc8c6[nH]c6ccccc86)C7)c(OC)cc5N(C)[C@H]4[C@@](O)(C(=O)OC)[C@@H]1OC(C)=O)[C@@H]32` [VINFLUNINE], the Hepatotoxicity entry is “no drug-induced liver injury reported” in series [1], “no drug-induced liver injury reported” in series [2] and “drug-induced liver injury reported” in series [3].

Regarding `CCC1=C[C@@H]2CN(C1)Cc1c([nH]c3ccccc13)[C@@](C(=O)OC)(c1cc3c(cc1OC)N(C)[C@H]1[C@@](O)(C(=O)OC)[C@H](OC(C)=O)[C@]4(CC)C=CCN5CC[C@]31[C@@H]54)C2` [VINORELBINE], the Hepatotoxicity result is on record as “no drug-induced liver injury reported” in series [1], “drug-induced liver injury reported” in series [2] and “drug-induced liver injury reported” in series [3].

For the compound `OCC(CO)N[C@H]1C[C@](O)(CO)[C@@H](O)[C@H](O)[C@H]1O` [VOGLIBOSE], the Hepatotoxicity entry is reported as “no drug-induced liver injury reported” in series [1], “drug-induced liver injury reported” in series [2] and “drug-induced liver injury reported” in series [3].

Regarding `C[C@@H](c1ncncc1F)[C@](O)(Cn1cncn1)c1ccc(F)cc1F` [VORICONAZOLE], the figures for the Hepatotoxicity result in series [1], in series [2] and in series [3] were “no drug-induced liver injury reported”, “drug-induced liver injury reported” and “no drug-induced liver injury reported”, respectively.

For `O=C(CCCCCCC(=O)Nc1ccccc1)NO` [VORINOSTAT], the Hepatotoxicity result in series [1] is given as “no drug-induced liver injury reported”; in series [2], “drug-induced liver injury reported”; in series [3] it was “drug-induced liver injury reported”.

With `CC(=O)CC(c1ccccc1)c1c(O)c2ccccc2oc1=O` (stereo not drawn) [WARFARIN], the Hepatotoxicity entry was “no drug-induced liver injury reported” in series [1], “drug-induced liver injury reported” in series [2] and “drug-induced liver injury reported” in series [3].

Regarding `CCOC(=O)CN[C@@H](C(=O)N1CC[C@H]1C(=O)NCc1ccc(/C(N)=N\O)cc1)C1CCCCC1` [XIMELAGATRAN], the Hepatotoxicity entry in series [1] is given as “no drug-induced liver injury reported”; in series [2] it was “drug-induced liver injury reported”; in series [3], “no drug-induced liver injury reported”.

For the compound `Cc1cccc(C)c1NC(=O)c1cc(S(N)(=O)=O)c(Cl)cc1O` [XIPAMIDE], the Hepatotoxicity result in series [1] is listed as “no drug-induced liver injury reported”; in series [2] it was “no drug-induced liver injury reported”; in series [3], “drug-induced liver injury reported”.

As for `COC(=O)[C@@H]1[C@H]2C[C@H]3c4[nH]c5ccccc5c4CCN3C[C@@H]2CC[C@@H]1O` [YOHIMBINE], the figures for the Hepatotoxicity result in series [1], in series [2] and in series [3] were “no drug-induced liver injury reported”, “no drug-induced liver injury reported” and “drug-induced liver injury reported”, respectively.

On to `COc1cc(C(=O)NS(=O)(=O)c2ccccc2C)ccc1Cc1cn(C)c2ccc(NC(=O)OC3CCCC3)cc12` [ZAFIRLUKAST], for which the figures for the Hepatotoxicity entry in series [1], in series [2] and in series [3] were “no drug-induced liver injury reported”, “drug-induced liver injury reported” and “no drug-induced liver injury reported”, respectively.

`Nc1ccn([C@H]2CC[C@@H](CO)O2)c(=O)n1` [ZALCITABINE]: the figures for the Hepatotoxicity entry in series [1] (Liver), in series [2] (Liver) and in series [3] (Liver) were “no drug-induced liver injury reported”, “drug-induced liver injury reported” and “drug-induced liver injury reported”, respectively.

For the compound `Cc1cn([C@H]2C[C@H](N=[N+]=[N-])[C@@H](CO)O2)c(=O)[nH]c1=O` [ZIDOVUDINE], the Hepatotoxicity entry in series [1] is “no drug-induced liver injury reported”; in series [2], “drug-induced liver injury reported”; in series [3], “drug-induced liver injury reported”.

For the compound `CC(c1cc2ccccc2s1)N(O)C(N)=O` (stereo not drawn) [ZILEUTON], the Hepatotoxicity result in series [1] is recorded as “no drug-induced liver injury reported”; in series [2], “drug-induced liver injury reported”; in series [3], “drug-induced liver injury reported”.

Turning to `CC(=O)[O][Zn][O]C(C)=O` [ZINC ACETATE ANHYDROUS], the Hepatotoxicity result in series [1] (Liver) is “no drug-induced liver injury reported”; in series [2] (Liver) it was “no drug-induced liver injury reported”; in series [3] (Liver), “drug-induced liver injury reported”.

For `Cc1ccc(-c2nc3ccc(C)cn3c2CC(=O)N(C)C)cc1` [ZOLPIDEM], the Hepatotoxicity result is “no drug-induced liver injury reported” in series [1], “drug-induced liver injury reported” in series [2] and “no drug-induced liver injury reported” in series [3].

For the compound BLEOMYCIN, the Hepatotoxicity entry in series [1] is reported as “no drug-induced liver injury reported”; in series [2], “drug-induced liver injury reported”; in series [3], “drug-induced liver injury reported”.

In the case of CARBOPLATIN, the Hepatotoxicity entry in series [1] is given as “no drug-induced liver injury reported”; in series [2] it was “drug-induced liver injury reported”; in series [3], “drug-induced liver injury reported”.

In the case of CHOLESTYRAMINE, the Hepatotoxicity entry is “no drug-induced liver injury reported” in series [1], “drug-induced liver injury reported” in series [2] and “drug-induced liver injury reported” in series [3].

Consider DALTEPARIN SODIUM, for which the Hepatotoxicity entry in series [1] was “no drug-induced liver injury reported”; in series [2], “no drug-induced liver injury reported”; in series [3] it was “drug-induced liver injury reported”.

As to GADOBENATE DIMEGLUMINE, the Hepatotoxicity result in series [1] is “no drug-induced liver injury reported”; in series [2], “drug-induced liver injury reported”; in series [3], “no drug-induced liver injury reported”.

As for GENTAMICIN, the Hepatotoxicity entry in series [1] was “no drug-induced liver injury reported”; in series [2], “no drug-induced liver injury reported”; in series [3] it was “drug-induced liver injury reported”.

Regarding GLATIRAMER ACETATE, the Hepatotoxicity result in series [1] is given as “no drug-induced liver injury reported”; in series [2] it was “drug-induced liver injury reported”; in series [3] it was “drug-induced liver injury reported”.

The values are drawn from ChEMBL document CHEMBL1697731, “Cheminformatics analysis of assertions mined from literature that describe drug-induced liver injury in different species” (Chem Res Toxicol, 2010).
